The NIST ThermoML archive (doi:10.1016/j.jct.2015.08.033)
± gives the expanded uncertainty stated by the source.

Assays:
[1] = 100 kPa, Liquid; for speed of sound: Frequency=3 MHz, Sing-around technique in a fixed-path interferometer; for mass density: Vibrating tube method
[2] = mn = molality of the nth substance listed, in mol/kg; details: 100 kPa, Liquid, m2 = 0; for speed of sound: Frequency=3 MHz, Sing-around technique in a fixed-path interferometer; for mass density: Vibrating tube method

SMILES | speed of sound ([1]; 298.15 K) | mass density ([1]; 298.15 K) | speed of sound ([1]; 303.15 K) | mass density ([1]; 303.15 K) | speed of sound ([1]; 308.15 K) | mass density ([1]; 308.15 K) | speed of sound ([1]; 313.15 K) | mass density ([1]; 313.15 K) | speed of sound ([1]; 318.15 K) | mass density ([1]; 318.15 K) | speed of sound ([2]; 298.15 K) | mass density ([2]; 298.15 K) | speed of sound ([2]; 303.15 K) | mass density ([2]; 303.15 K) | speed of sound ([2]; 308.15 K) | mass density ([2]; 308.15 K) | speed of sound ([2]; 313.15 K) | mass density ([2]; 313.15 K) | speed of sound ([2]; 318.15 K) | mass density ([2]; 318.15 K)
CC(=O)N(C)C [N,N-dimethylethanamide] | 1455.8 ± 1.3 m/s | 936.281 ± 0.14 kg/m3 | 1436 ± 1.3 m/s | 931.672 ± 0.14 kg/m3 | 1416.1 ± 1.3 m/s | 927.055 ± 0.14 kg/m3 | 1396.5 ± 1.3 m/s | 922.422 ± 0.14 kg/m3 | 1376.9 ± 1.3 m/s | 917.788 ± 0.14 kg/m3 | – | – | – | – | – | – | – | – | – | –
CC(=O)N(C)C [N,N-dimethylethanamide] + O=S(=O)([O-])C(F)(F)F.O=S(=O)([O-])C(F)(F)F.[Ca+2] | – | – | – | – | – | – | – | – | – | – | 1455.7 ± 1.3 m/s | 936.279 ± 0.45 kg/m3 | 1435.9 ± 1.3 m/s | 931.67 ± 0.45 kg/m3 | 1416.1 ± 1.3 m/s | 927.058 ± 0.45 kg/m3 | 1396.5 ± 1.3 m/s | 922.429 ± 0.45 kg/m3 | 1376.9 ± 1.3 m/s | 917.793 ± 0.45 kg/m3
CC(=O)N(C)C [N,N-dimethylethanamide] + O=S(=O)([O-])C(F)(F)F.O=S(=O)([O-])C(F)(F)F.[Mg+2] | – | – | – | – | – | – | – | – | – | – | 1455.9 ± 1.3 m/s | 936.279 ± 0.46 kg/m3 | 1436 ± 1.3 m/s | 931.67 ± 0.46 kg/m3 | 1416.2 ± 1.3 m/s | 927.047 ± 0.46 kg/m3 | 1396.5 ± 1.3 m/s | 922.416 ± 0.46 kg/m3 | 1376.9 ± 1.3 m/s | 917.78 ± 0.46 kg/m3
CC(=O)N(C)C [N,N-dimethylethanamide] + O=S(=O)([O-])C(F)(F)F.O=S(=O)([O-])C(F)(F)F.[Sr+2] | – | – | – | – | – | – | – | – | – | – | 1455.9 ± 1.3 m/s | 936.29 ± 0.52 kg/m3 | 1435.9 ± 1.3 m/s | 931.679 ± 0.52 kg/m3 | 1416.1 ± 1.3 m/s | 927.058 ± 0.52 kg/m3 | 1396.5 ± 1.3 m/s | 922.423 ± 0.52 kg/m3 | 1376.9 ± 1.3 m/s | 917.79 ± 0.52 kg/m3
CC(=O)N(C)C [N,N-dimethylethanamide] + [Ba+2].[O-][Cl+3]([O-])([O-])[O-].[O-][Cl+3]([O-])([O-])[O-] | – | – | – | – | – | – | – | – | – | – | 1455.9 ± 1.3 m/s | 936.277 ± 0.54 kg/m3 | 1436 ± 1.3 m/s | 931.67 ± 0.54 kg/m3 | 1416.2 ± 1.3 m/s | 927.058 ± 0.54 kg/m3 | 1396.5 ± 1.3 m/s | 922.423 ± 0.54 kg/m3 | 1376.9 ± 1.3 m/s | 917.79 ± 0.55 kg/m3
CN(C)C=O [dimethylformamide] | 1457.2 ± 1.3 m/s | 943.913 ± 0.14 kg/m3 | 1437.9 ± 1.3 m/s | 939.139 ± 0.14 kg/m3 | 1418.5 ± 1.3 m/s | 934.354 ± 0.14 kg/m3 | 1399.3 ± 1.3 m/s | 929.554 ± 0.14 kg/m3 | 1380 ± 1.3 m/s | 924.744 ± 0.14 kg/m3 | – | – | – | – | – | – | – | – | – | –
CN(C)C=O [dimethylformamide] + O=S(=O)([O-])C(F)(F)F.O=S(=O)([O-])C(F)(F)F.[Ca+2] | – | – | – | – | – | – | – | – | – | – | 1457.2 ± 1.3 m/s | 943.915 ± 0.44 kg/m3 | 1437.9 ± 1.3 m/s | 939.142 ± 0.44 kg/m3 | 1418.5 ± 1.3 m/s | 934.356 ± 0.45 kg/m3 | 1399.2 ± 1.3 m/s | 929.553 ± 0.45 kg/m3 | 1380 ± 1.3 m/s | 924.746 ± 0.45 kg/m3
CN(C)C=O [dimethylformamide] + O=S(=O)([O-])C(F)(F)F.O=S(=O)([O-])C(F)(F)F.[Mg+2] | – | – | – | – | – | – | – | – | – | – | 1457.1 ± 1.3 m/s | 943.905 ± 0.43 kg/m3 | 1437.9 ± 1.3 m/s | 939.125 ± 0.43 kg/m3 | 1418.5 ± 1.3 m/s | 934.34 ± 0.43 kg/m3 | 1399.2 ± 1.3 m/s | 929.543 ± 0.43 kg/m3 | 1380 ± 1.3 m/s | 924.732 ± 0.43 kg/m3
CN(C)C=O [dimethylformamide] + O=S(=O)([O-])C(F)(F)F.O=S(=O)([O-])C(F)(F)F.[Sr+2] | – | – | – | – | – | – | – | – | – | – | 1457.2 ± 1.3 m/s | 943.913 ± 0.51 kg/m3 | 1438 ± 1.3 m/s | 939.144 ± 0.51 kg/m3 | 1418.6 ± 1.3 m/s | 934.36 ± 0.51 kg/m3 | 1399.3 ± 1.3 m/s | 929.56 ± 0.51 kg/m3 | 1380.1 ± 1.3 m/s | 924.748 ± 0.51 kg/m3
CN(C)C=O [dimethylformamide] + [Ba+2].[O-][Cl+3]([O-])([O-])[O-].[O-][Cl+3]([O-])([O-])[O-] | – | – | – | – | – | – | – | – | – | – | 1457.2 ± 1.3 m/s | 943.919 ± 0.54 kg/m3 | 1437.8 ± 1.3 m/s | 939.144 ± 0.54 kg/m3 | 1418.5 ± 1.3 m/s | 934.36 ± 0.55 kg/m3 | 1399.2 ± 1.3 m/s | 929.56 ± 0.55 kg/m3 | 1380 ± 1.3 m/s | 924.748 ± 0.55 kg/m3
